# Reference: patent US9708328B2, “Pteridines useful as HCV inhibitors and methods for the preparation thereof” (Janssen Sciences Ireland UC, priority 2005, dated 2017)
# Where two headings read alike, the source gives them in different places.
# How the values were obtained:
# [1] = system: HCV replicon (HCV type 1b) in Huh-7 luc/neo cells; test: Stable replicon cell reporter assay (Huh-Luc, luciferase readout); assay type: cell-based; conditions: Hepatitis C virus, Huh-7, 72 h, three days incubation, luciferase activity
# Text: Stable Replicon Cell Reporter Assays:
# The compounds of the present invention are examined for activity in the inhibition of HCV RNA replication in a cellular assay. […] The cellular assay is based on a bicistronic expression construct, as described by Lohmann et al. (1999) Science vol. 285 pp. 110-113 with modifications described by Krieger et al. (2001) Journal of Virology 75: 4614-4624, in a multi-target screening strategy. In essence, the method is as follows.
# The assay utilizes the stably transfected cell line Huh-7 luc/neo (hereafter referred to as Huh-Luc). This cell line harbors an RNA encoding a bicistronic expression construct comprising the wild type NS3-NS5B regions of HCV type 1b translated from an Internal Ribosome Entry Site (IRES) from encephalomyocarditis virus (EMCV), preceded by a reporter portion (FfL-luciferase), and a selectable marker portion (neo^R, neomycine phosphotransferase). The construct is bordered by 5′ and 3′ NTRs (non-translated regions) from HCV type 1b. Continued culture of the replicon cells in the presence of G418 (neo^R) is dependent on the replication of the HCV RNA. The stably transfected replicon cells that express HCV RNA, which replicates autonomously and to high levels, encoding inter alia luciferase, are used for screening the antiviral compounds.
# Cellular Assay Experimental Method:
# The replicon cells are plated in 384 well plates in the presence of the test and control compounds which are added in various concentrations. Following an incubation of three days, HCV replication is measured by assaying luciferase activity (using standard luciferase assay substrates and reagents and a Perkin Elmer ViewLux™ ultraHTS microplate imager). Replicon cells in the control cultures have high luciferase expression in the absence of any inhibitor. The inhibitory activity of the compound on luciferase activity is monitored on the Huh-Luc cells, enabling a dose-response curve for each test compound.
# [2] = Pharmacokinetic profile after single oral administration: plasma, heart and liver levels; assay type: in vivo, male Swiss SPF (CD1)-mice
# Protocol: Compound nr. 21 was dissolved in a 10% hydroxypropyl-β-cyclodextrin (HP-β-CD) solution at a final concentration of 1 mg base-eq./ml, .pH 4.36.
# Three animals were administered orally the solution of compound nr. 21 to obtain a dose of 20 mg base-eq./kg. Blood samples were taken at 30 min, 1, 2, 4, 8 and 24 h after oral dose administration. Plasma was obtained following centrifugation at 4° C. for 10 minutes at approximately 1900×g.
# From each orally dosed animal individual samples of heart and liver were dissected and weighed. Tissue samples were homogenized in demineralized water.
# Plasma and tissue samples were analysed for compound nr. 21, using a qualified research LC-MS/MS method.
# A limited pharmacokinetic analysis was performed using WinNonlin™ Professional (Version 4.0.1). A non-compartmental analysis using the lin/log trapezoidal rule with lin/log interpolation was used for all data. The variability between animals is indicated by the standard deviation (st dev).
smiles,measurement,setting,value
"Cc1cnccc1Nc1nc(-c2cc(Cl)ccc2F)nc2nccnc12 [Compound 25, 2-(5-chloro-2-fluorophenyl)-4-(3-methyl-4-pyridylamino)pteridine]",EC50,[1],480 nM
"CN(c1ccncc1)c1nc(-c2cc(Br)ccc2F)nc2nccnc12 [Compound 2, 2-(5-bromo-2-fluorophenyl)-4-[(methyl)(4-pyridyl)amino]pteridine]",EC50,[1],3650 nM
"OCCNc1nc(-c2cc(Br)ccc2F)nc2nccnc12 [Compound 11, 2-(5-bromo-2-fluorophenyl)-4-(2-hydroxyethylamino)pteridine]",EC50,[1],> 32000 nM
"O=C(NCCCN1CCCC1=O)c1cnccc1Nc1nc(-c2cc(Br)ccc2F)nc2nccnc12 [Compound 21, 4-[[2-(5-bromo-2-fluorophenyl)pteridin-4-yl]amino]-N-[3-(2-oxopyrrolidin-1-yl)propyl]nicotinamide]",EC50,[1],58 nM
same,AUC0-inf,"[2]; heart, 20 mg base-eq./kg oral",1262 ng·h/mL
same,AUC(0-8 h),"[2]; heart, 20 mg base-eq./kg oral",1119 ng·h/mL
same,Tmax,"[2]; heart, 20 mg base-eq./kg oral",0.5 h
same,t1/2 (2-8 h),"[2]; heart, 20 mg base-eq./kg oral",3.4 h
same,Cmax,"[2]; heart, 20 mg base-eq./kg oral (Table 4)",678 ng/mL
same,"Mean tissue level, heart","[2]; heart, time 24 h, 20 mg base-eq./kg oral, n=3, LLOQ between 5.00 and 13.16 ng/g",BQL^1)
same,AUC0-inf,"[2]; liver, 20 mg base-eq./kg oral",7973 ng·h/mL
same,AUC(0-8 h),"[2]; liver, 20 mg base-eq./kg oral",6965 ng·h/mL
same,Tmax,"[2]; liver, 20 mg base-eq./kg oral",0.5 h
same,t1/2 (2-8 h),"[2]; liver, 20 mg base-eq./kg oral",3.5 h
same,Cmax,"[2]; liver, 20 mg base-eq./kg oral (Table 4)",4057 ng/mL
same,"Mean tissue level, liver","[2]; liver, time 24 h, 20 mg base-eq./kg oral, n=3, LLOQ between 5.00 and 13.16 ng/g",BQL^1)
same,Cmax,"[2]; male, Swiss SPF (CD1), mouse, 20 mg/kg, heart, 0.5 h post dose, 20 mg base-eq./kg oral, read-out: Mean maximum tissue concentration (Cmax)",678 ng/g
same,Cmax,"[2]; male, Swiss SPF (CD1), mouse, 20 mg/kg, liver, 0.5 h post dose, 20 mg base-eq./kg oral, read-out: Mean maximum tissue concentration (Cmax)",4060 ng/g
same,concentration at 0.5 h,"[2]; male, Swiss SPF (CD1), mouse, plasma, time 0.5 h, 20 mg base-eq./kg oral, n=3, read-out: Mean plasma level",220 ng/mL
same,concentration at 1 h,"[2]; male, Swiss SPF (CD1), mouse, plasma, time 1 h, 20 mg base-eq./kg oral, n=3, read-out: Mean plasma level",166 ng/mL
same,concentration at 2 h,"[2]; male, Swiss SPF (CD1), mouse, plasma, time 2 h, 20 mg base-eq./kg oral, n=3, read-out: Mean plasma level",21.7 ng/mL
same,concentration at 4 h,"[2]; male, Swiss SPF (CD1), mouse, plasma, time 4 h, 20 mg base-eq./kg oral, n=3, read-out: Mean plasma level",20.3 ng/mL
same,concentration at 8 h,"[2]; male, Swiss SPF (CD1), mouse, plasma, time 8 h, 20 mg base-eq./kg oral, n=3, read-out: Mean plasma level",5.52 ng/mL
same,AUC0-inf,"[2]; plasma, 20 mg base-eq./kg oral",332 ng·h/mL
same,AUC(0-8 h),"[2]; plasma, 20 mg base-eq./kg oral",309 ng·h/mL
same,Cmax,"[2]; plasma, 20 mg base-eq./kg oral",220 ng/mL
same,Tmax,"[2]; plasma, 20 mg base-eq./kg oral",0.5 h
same,t1/2 (2-8 h),"[2]; plasma, 20 mg base-eq./kg oral",2.9 h
same,Mean plasma level,"[2]; plasma, time 24 h, 20 mg base-eq./kg oral, n=3, LLOQ 0.500 ng/ml",BQL^1)
"CCc1cnccc1Nc1nc(-c2cc(Cl)ccc2F)nc2nccnc12 [Compound 23, 2-(5-chloro-2-fluorophenyl)-4-(3-ethyl-4-pyridylamino)pteridine]",EC50,[1],520 nM
"Fc1cccc(-c2nc(Nc3ccncc3)c3nccnc3n2)c1 [Compound 27, 2-(3-fluorophenyl)-4-(4-pyridylamino)pteridine]",EC50,[1],3000 nM
"Cc1cccc(-c2nc(Nc3ccncc3C)c3nccnc3n2)n1 [Compound 19, 2-(2-methyl-6-pyridyl)-4-[(3-methyl-4-pyridyl)amino]pteridine]",EC50,[1],12000 nM
"Fc1ccc(Br)cc1-c1nc(Nc2ccc(N3CCOCC3)cc2)c2nccnc2n1 [Compound 14, 2-(5-bromo-2-fluorophenyl)-4-(4-morpholinophenylamino)pteridine]",EC50,[1],8700 nM
"Fc1ccc(Br)cc1-c1nc(N(Cc2ccccc2)c2ccncc2)c2nccnc2n1 [Compound 5, 4-[(benzyl)(4-pyridyl)amino]-2-(5-bromo-2-fluorophenyl)pteridine]",EC50,[1],990 nM
"Fc1ccc(Br)cc1-c1nc(N(CCc2ccccc2)c2ccncc2)c2nccnc2n1 [Compound 22, 2-(5-bromo-2-fluorophenyl)-4-[(phenethyl)(4-pyridyl)amino]-pteridine]",EC50,[1],1960 nM
"Cc1cnccc1Nc1nc(-c2cc(Br)ccc2F)nc2nccnc12 [Compound 7, 2-(5-bromo-2-fluorophenyl)-4-(3-methyl-4-pyridylamino)pteridine]",EC50,[1],950 nM
"Fc1ccc(Br)cc1-c1nc(N2CCN(c3ccccn3)CC2)c2nccnc2n1 [Compound 12, 2-(5-bromo-2-fluorophenyl)-4-[4-(2-pyridyl)piperazin-1-yl]pteridine]",EC50,[1],> 32000 nM
"Clc1cccc(-c2nc(Nc3ccncc3)c3nccnc3n2)c1 [Compound 18, 2-(3-chlorophenyl)-4-(4-pyridylamino)pteridine]",EC50,[1],1500 nM
"Cc1cnccc1Nc1nc(-c2cc(Br)ccc2N2CCCC2)nc2nccnc12 [Compound 6, 2-(5-Bromo-2-pyrrolidin-1-ylphenyl)-4-(3-methyl-4-pyridylamino)pteridine]",EC50,[1],18000 nM
"CC(C)(C)CCN(c1ccncc1)c1nc(-c2cc(Br)ccc2F)nc2nccnc12 [Compound 4, 2-(5-bromo-2-fluorophenyl)-4-[(3,3-dimethylbutyl)(4-pyridyl)amino]pteridine]",EC50,[1],480 nM
"CN(c1ccccc1)c1nc(-c2cc(Br)ccc2F)nc2nccnc12 [Compound 10, 2-(5-bromo-2-fluorophenyl)-4-[(methyl)(phenyl)amino]pteridine]",EC50,[1],11000 nM
"FC(F)(F)c1cccc(-c2nc(Nc3ccncc3)c3nccnc3n2)c1 [Compound 26, 2-(3-trifluoromethylphenyl)-4-(4-pyridylamino)pteridine]",EC50,[1],2000 nM
"CCCCN(c1ccncc1)c1nc(-c2cc(Br)ccc2F)nc2nccnc12 [Compound 3, 4-[(butyl)(4-pyridyl)amino]-2-(5-bromo-2-fluorophenyl)pteridine]",EC50,[1],2200 nM
"Fc1ccc(Br)cc1-c1nc(Nc2ccccc2)c2nccnc2n1 [Compound 8, 2-(5-bromo-2-fluorophenyl)-4-(phenylamino)pteridine]",EC50,[1],> 32000 nM
"Cc1ccccc1Nc1nc(-c2cc(Br)ccc2F)nc2nccnc12 [Compound 9, 2-(5-bromo-2-fluorophenyl)-4-(2-tolylamino)pteridine]",EC50,[1],11000 nM
"COC(=O)c1cnccc1Nc1nc(-c2cc(Br)ccc2F)nc2nccnc12 [Compound 13, 4-[[2-(5-Bromo-2-fluorophenyl)pteridin-4-yl]amino]nicotinic acid methyl ester]",EC50,[1],4900 nM
"Fc1ccc(Cl)cc1-c1nc(Nc2ccncc2)c2nccnc2n1 [Compound 24, 2-(5-chloro-2-fluorophenyl)-4-(4-pyridylamino)pteridine]",EC50,[1],780 nM
"Fc1ccc(Br)cc1-c1nc(Nc2ccncc2)c2nccnc2n1 [Compound 1, 2-(5-bromo-2-fluorophenyl)-4-(4-pyridylamino)pteridine]",EC50,[1],352 nM
"Cc1cc(Nc2nc(-c3cc(Br)ccc3F)nc3nccnc23)ccn1 [Compound 15, 2-(5-bromo-2-fluorophenyl)-4-(2-methyl-4-pyridylamino)pteridine]",EC50,[1],3560 nM
